From patent US20260167641A1, “CRYSTAL FORM OF IMIDAZOPYRAZINE DERIVATIVE, PREPARATION METHOD THEREFOR AND USE THEREOF” (TRANSTHERA SCIENCES (NANJING), INC., priority 2022, published 2026)

What was measured:
[1] = Stability evaluation under influencing factors; format: physicochemical
Description: Appropriate amounts of crystal forms I, II. III, and the compound of formula (I) were taken and exposed to conditions of 60° C., RH (relative humidity) 92.5%, RH (relative humidity) 75%, and light, respectively. The samples were collected on day 30, and the purity of the samples and changes in XRPD were examined according to the 2020 edition of the Chinese Pharmacopoeia.

[2] = Pharmacokinetic evaluation test in rats; format: in vivo, SD rats; conditions: p.o. 100 mg/kg
Description: • Animals: male SD rats • Animal administration and sample collection: Crystal forms I, II, and III were each dissolved in a mixture of 20% PEG400+80% (20% Captisol in 0.5% MC) to prepare administration formulation suspensions. The administration formulations were intragastrically administered to the SD rats at a dose of 100 mg/kg. Blood samples were collected at time points of 15 min, 30 min, 1 h, 2 h, 4 h, 6 h, 8 h, 24 h, 48 h, 72 h, and […] after administration.
One day before administration, the animals underwent jugular vein catheterization. After administration, about 300 μL of blood samples were collected via the jugular vein and then placed into anticoagulation tubes containing EDTA-K2. The blood samples were centrifuged at 4° C. and 8000 rpm for 10 min to yield plasma samples, which were prepared within 30 min after blood sample collection. The plasma samples were stored in a refrigerator at −80° C. before tests.
The samples to be tested were taken out from the refrigerator at −80° C., naturally thawed at room temperature, and then vortexed for 5 min. 20 μL of each of the 20-fold diluted plasma samples was precisely pipetted into a 1.5 mL centrifuge tube, and 300 μL of an internal standard working solution at a concentration of 10 ng/mL was added. The mixture was uniformly mixed, vortexed for 5 min, and then centrifuged at 12000 rpm for 5 mun.
50 μL of the supernatant was precisely pipetted into a 96-well plate to which water was added at 150 μL/well in advance, uniformly mixed by vortexing for 5 min, and analyzed by LC-MS/MS.
The sample to be tested was taken out from the refrigerator at −80° C., naturally thawed at room temperature, and then vortexed for 5 min. 2 μL of the plasma sample was precisely pipetted and then added, together with 28 μL of blank plasma, to a 1.5 mL centrifuge tube, and 450 μL of an internal standard working solution (a solution of tolbutamide in acetonitrile) at a concentration of 100 ng/mL was added. The mixture was uniformly mixed, vortexed for 5 min, and then centrifuged at 12000 rpm for 5 min. 50 μL of the supernatant was precisely pipetted into a 96-well plate to which water was added at 150 μL/well in advance, uniformly mixed by vortexing for 5 min, and analyzed by LC-MS/MS.
The test compound concentrations were output by Analyst 1.7.1 of AB Sciex. Parameters such as mean, standard deviation, and coefficient of variation were calculated by Microsoft Excel. PK parameters were calculated by Pharsight Phoenix 8.2 software NCA (Tmax was in median).

[3] = male SD rats, mean, n = 3, 100 mg/kg

## Nc1nccn2c(C34CCC(NC(=O)CN5CCOCC5)(CC3)C4)nc(-c3ccc(C(=O)Nc4cc(C(F)(F)F)ccn4)cc3)c12 (single isomer, unassigned) [Crystal form II, 4-(8-amino-3-(4-(2-morpholinoacetamido)bicyclo[2.2.1]heptan-1-yl)imidazo[1,5-a]pyrazin-1-yl)-N-(4-(trifluoromethyl)pyridin-2-yl)benzamide]
[1]; 0 day
  Purity %: 99.3%
[1]; 60° C., 30 days
  Crystal form identification (XRPD): Consistent with day 0
  Purity %: 99.3%
[1]; Light exposure, 30 days
  Crystal form identification (XRPD): Consistent with day 0
  Purity %: 98.8%
[1]; RH 75%, 30 days
  Crystal form identification (XRPD): Consistent with day 0
  Purity %: 99.3%
[1]; RH 92.5%, 30 days
  Crystal form identification (XRPD): Consistent with day 0
  Purity %: 99.3%
[1]; all influencing factor conditions, 30 days
  Change of crystal form (XRPD pattern): no changes in the crystal forms occurred
[1]; influencing factors, 30 days
  Stability compared to the amorphous form: higher stability
[1]; light exposure, 30 days vs day 0
  Purity decrease: 0.5%
[2]; SD rats
  Pharmacokinetic properties: very good pharmacokinetic properties
[2]; [3]
  AUCinf—obs: 2545.383 µg·h/mL
  AUClast: 2515.536 µg·h/mL
[2]; male, SD, rat, plasma, po, 100 mg/kg, male SD rats, mean, n = 3, read-out: Cmax
  Cmax: 145 µg/mL
[2]; male, SD, rat, plasma, po, 100 mg/kg, male SD rats, mean, n = 3, read-out: tz1/2 (terminal half-life) (converted)
  half-life: 7.74 h
[2]; male, SD, rat, plasma, po, 100 mg/kg, male SD rats, n = 3, Tmax in median, read-out: Tmax
  Tmax: 2 h
